Columns and labels:
[1] = system: Agropyrons repens; test: Weed plant herbicidal activity, pre-emergence; assay type: in vivo; settings: 20 g of active substance per hectare, visual scoring after 3 to 4 weeks
From the text: (§1) 1. Weed plant herbicidal activity and crop plant tolerance, pre-emergence Seeds of monocot and dicot weed plants and of crop plants are placed in sandy loam soil in cardboard pots and are covered with soil. The compounds of the invention, formulated as wettable powders or emulsifiable concentrates, are then applied as an aqueous suspension or emulsion, respectively, in different dosages to the surface of the covering soil at an application rate of 600 to 800 l of water per ha (converted). Following treatment, the pots are placed in a greenhouse and kept under good growth conditions for the weeds. Visual scoring of the plant damage or emergence damage is made after the experimental plants have emerged, after an experimental period of 3 to 4 weeks, in comparison with untreated controls. […] At the same application rate this compound of the invention causes no damage to the crop plants Oryza sativa (rice) or Zea mays (maize).

[2] = system: Alopecurus myosuroides; test: Weed plant herbicidal activity, pre-emergence; assay type: in vivo; settings: 20 g of active substance per hectare, visual scoring after 3 to 4 weeks
From the text: as §1

[3] = system: Amaranthus retroflexus; test: Weed plant herbicidal activity, pre-emergence; assay type: in vivo; settings: 20 g of active substance per hectare, visual scoring after 3 to 4 weeks
From the text: as §1

[4] = system: Avena fatua; test: Weed plant herbicidal activity, pre-emergence; assay type: in vivo; settings: 20 g of active substance per hectare, visual scoring after 3 to 4 weeks
From the text: as §1

[5] = system: Digitaria sanguinalis; test: Weed plant herbicidal activity, pre-emergence; assay type: in vivo; settings: 20 g of active substance per hectare, visual scoring after 3 to 4 weeks
From the text: as §1

[6] = system: Galium aparine; test: Weed plant herbicidal activity, pre-emergence; assay type: in vivo; settings: 20 g of active substance per hectare, visual scoring after 3 to 4 weeks
From the text: as §1

[7] = system: Lolium multiflorum; test: Weed plant herbicidal activity, pre-emergence; assay type: in vivo; settings: 20 g of active substance per hectare, visual scoring after 3 to 4 weeks
From the text: as §1

[8] = system: Setaria viridis; test: Weed plant herbicidal activity, pre-emergence; assay type: in vivo; settings: 20 g of active substance per hectare, visual scoring after 3 to 4 weeks
From the text: as §1

[9] = system: Sorghum halepense; test: Weed plant herbicidal activity, pre-emergence; assay type: in vivo; settings: 20 g of active substance per hectare, visual scoring after 3 to 4 weeks
From the text: as §1

[10] = system: Veronica persica; test: Weed plant herbicidal activity, pre-emergence; assay type: in vivo; settings: 20 g of active substance per hectare, visual scoring after 3 to 4 weeks
From the text: as §1

[11] = system: Oryza sativa (rice); test: Crop plant tolerance, pre-emergence; assay type: in vivo; settings: 20 g of active substance per hectare, 3 to 4 weeks
From the text: as §1

[12] = system: Zea mays (maize); test: Crop plant tolerance, pre-emergence; assay type: in vivo; settings: 20 g of active substance per hectare, 3 to 4 weeks
From the text: as §1

[13] = system: Chenopodium album; test: Weed plant herbicidal activity, post-emergence; assay type: in vivo; settings: three-leaf stage, 80 g of active substance per hectare, scored after 3 to 4 weeks
Experimental: (§2) 2. Weed plant herbicidal activity and crop plant tolerance, post-emergence Seeds of monocot and dicot weed plants and of crop plants are placed in sandy loam in cardboard pots, covered with soil, and grown under good growth conditions in a greenhouse. Two to three weeks after sowing, the experimental plants are treated at the three-leaf stage. The compounds of the invention, formulated as wettable powders or as emulsifiable concentrates, are sprayed at different dosages onto the surface of the green parts of the plants at an application rate of 600 to 800 l of water per ha (converted). After the experimental plants have stood in the greenhouse for 3 to 4 weeks under optimum growth conditions, the activity of the compounds is scored. […] At the same application rate this compound of the invention causes no damage to the crop plant Oryza sativa (rice) and 20% damage to Triticum aestivum (wheat).

[14] = system: Digitaria sanguinalis; test: Weed plant herbicidal activity, post-emergence; assay type: in vivo; settings: three-leaf stage, 80 g of active substance per hectare, scored after 3 to 4 weeks
Experimental: as §2

[15] = system: Matricaria inodora; test: Weed plant herbicidal activity, post-emergence; assay type: in vivo; settings: three-leaf stage, 80 g of active substance per hectare, scored after 3 to 4 weeks
Experimental: as §2

[16] = system: Pharbitis purpureum; test: Weed plant herbicidal activity, post-emergence; assay type: in vivo; settings: three-leaf stage, 80 g of active substance per hectare, scored after 3 to 4 weeks
Experimental: as §2

[17] = system: Veronica persica; test: Weed plant herbicidal activity, post-emergence; assay type: in vivo; settings: three-leaf stage, 80 g of active substance per hectare, scored after 3 to 4 weeks
Experimental: as §2

[18] = system: Oryza sativa (rice); test: Crop plant tolerance, post-emergence; assay type: in vivo; settings: 80 g of active substance per hectare, 3 to 4 weeks
Experimental: as §2

[19] = system: Triticum aestivum (wheat); test: Crop plant tolerance, post-emergence; assay type: in vivo; settings: 80 g of active substance per hectare, 3 to 4 weeks
Experimental: as §2

COc1cnc(-n2cc(C(F)(F)F)cn2)nc1Oc1csc(C(F)(F)F)c1 [Example No. 1.22, 5-methoxy-2-(4-trifluoromethyl-1H-1-pyrazolyl)-4-(5-trifluoromethyl-3-thienyloxy)pyrimidine]
at least 80%: activity against Agropyrons repens [1] | activity against Alopecurus myosuroides [2] | activity against Amaranthus retroflexus [3] | activity against Avena fatua [4] | activity against Digitaria sanguinalis [5] | activity against Galium aparine [6] | activity against Lolium multiflorum [7] | activity against Setaria viridis [8] | activity against Sorghum halepense [9] | activity against Veronica persica [10]
109 to 111 °C: melting point
at least 90%: activity against Chenopodium album [13] | activity against Digitaria sanguinalis [14] | activity against Matricaria inodora [15] | activity against Pharbitis purpureum [16] | activity against Veronica persica [17]
20%: damage to Triticum aestivum (wheat) [19]
no damage: damage to the crop plant Oryza sativa (rice) [11] | damage to the crop plant Zea mays (maize) [12] | damage to the crop plant Oryza sativa (rice) [18]

Cc1cnc(-n2cc(C(F)(F)F)cn2)nc1Oc1csc(C(F)(F)F)c1 [1.8, 5-methyl-2-(4-trifluoromethyl-1H-1-pyrazolyl)-4-(5-trifluoromethyl-3-thienyloxy)pyrimidine]
94 to 96 °C: melting point

Reference: US7022650B2, “4-trifluoromethylpyrazolyl-substituted pyridines and pyrimidines” (Bayer CropScience GmbH, priority 2002, dated 2006)
